Test results taken from patent US10100010B1, “4-methoxy pyrrole derivatives or salts thereof and pharmaceutical composition comprising the same” (Daewoong Pharmaceutical Co., Ltd., priority 2015, dated 2018).
Counter-ions that a name gives are not always drawn.

Key:
[1] = biological target: T1, proton pump (H+/K+-ATPase) (Sus scrofa, UniProt P19156); assay: Inhibitory effects on proton pump (H+/K+-ATPase) activity, gastric vesicles, malachite green Pi detection; format: biochemical; conditions: hog gastric vesicles, 37° C. 40 minutes, pH 7.4
T1 construct: Gastric vesicles were prepared from a hog stomach; from tissue; host or cells: hog stomach (gastric vesicles, method of Rabon et al. 1988)
Method: The inhibitory effects on proton pump (H^+/K^+-ATPase) activity of the compounds prepared in Examples 2, 8 and 22 were measured as follows.
Gastric vesicles were prepared from a hog stomach in accordance with the known method (Edd C. Rabon et al., Preparation of Gastric H^+, K^+-ATPase., Methods in enzymology, vol. 157 Academic Press Inc., (1988), pp. 649-654). The protein contents of gastric vesicles thus prepared were quantitatively measured with Bicinchoninic Acid (BCA) kit (Thermo Co.).
80 ul of (a predetermined concentration of a test compound, 0.5% DMSO, 2.5 mM MgCl2, 12.5 mM KCl, 1.25 mM EDTA, 60 mM Tris-HCl, pH7.4) was added to each well of 96-well plate. 10 ul of the reaction solution containing gastric vesicles (60 mmol/l, Tris-HCl buffer solution, pH 7.4), and 10 ul of Tris buffer solution containing adenosine triphosphate (10 mM ATP, Tris-HCl buffer solution, pH 7.4) were added to each well and subjected to enzymatic reaction at 37° C. for 40 minutes. […] The amount of monophosphate (Pi) in the reaction solution was measured at 570 nm by using a microplate reader (FLUOstar Omega, BMG Co.). The inhibition rate (%) was measured from the activity value of the control group and the activity value of the test compound at various concentrations, and the concentration (IC50) that inhibits H^+/K^+-ATPase activity by 50% was calculated from each % inhibition value of the compounds using Logistic 4-parameter function of Sigmaplot8.0 program.

[2] = system: indomethacin-induced gastric damage in rats; assay: Gastric damage inhibitory activity against indomethacin-induced gastric damage in rats; format: in vivo, Sprague Dawley (SD) rats; conditions: 2.0 mg/kg oral, 1 hour before indomethacin 80 mg/kg
Method: The inhibitory activity against the gastric damage of the compounds prepared in Examples 2 and 8 was measured using indomethacin model (Chiou., Et al., 2005, gastroenterology, 128, p 63-73). Male Sprague Dawley (SD) rats (body weight 180-220 g) was divided into 5 groups (n=10) and fasted for 24 hours with free access to water. Control group was orally administered with 5 mL/kg of 0.5% methyl cellulose (MC) aqueous solution, and the other groups were orally administered with test compounds suspended in 0.5% methyl cellulose (MC) aqueous solution at a dose of 2.0 mg/kg/5 ml. For comparison, the compound of Example 134 (Comparative Example 1) and the compound of Example 165 (Comparative Example 2) in International Patent Publication No. WO 2006/036024 were orally administered at a dose of 2.0 mg/kg/5 ml by suspending 0.5% methylcellulose (MC) aqueous solution, respectively. […] The incised stomach was placed on a fixture, fixed by a fixing pin while spreading out using a forcep and then the gastric damage area was measured. % Inhibitory activity of test compounds was calculated according to the following Equation 2, and the results are shown in Table 3. % Inhibitory activity of test compound=[1−(gastric damage area % of the group treated with test compounds)/(gastric damage area % of control group)]×100 [Equation 2]

T1 sequence (P19156 2-1034 limits assumed): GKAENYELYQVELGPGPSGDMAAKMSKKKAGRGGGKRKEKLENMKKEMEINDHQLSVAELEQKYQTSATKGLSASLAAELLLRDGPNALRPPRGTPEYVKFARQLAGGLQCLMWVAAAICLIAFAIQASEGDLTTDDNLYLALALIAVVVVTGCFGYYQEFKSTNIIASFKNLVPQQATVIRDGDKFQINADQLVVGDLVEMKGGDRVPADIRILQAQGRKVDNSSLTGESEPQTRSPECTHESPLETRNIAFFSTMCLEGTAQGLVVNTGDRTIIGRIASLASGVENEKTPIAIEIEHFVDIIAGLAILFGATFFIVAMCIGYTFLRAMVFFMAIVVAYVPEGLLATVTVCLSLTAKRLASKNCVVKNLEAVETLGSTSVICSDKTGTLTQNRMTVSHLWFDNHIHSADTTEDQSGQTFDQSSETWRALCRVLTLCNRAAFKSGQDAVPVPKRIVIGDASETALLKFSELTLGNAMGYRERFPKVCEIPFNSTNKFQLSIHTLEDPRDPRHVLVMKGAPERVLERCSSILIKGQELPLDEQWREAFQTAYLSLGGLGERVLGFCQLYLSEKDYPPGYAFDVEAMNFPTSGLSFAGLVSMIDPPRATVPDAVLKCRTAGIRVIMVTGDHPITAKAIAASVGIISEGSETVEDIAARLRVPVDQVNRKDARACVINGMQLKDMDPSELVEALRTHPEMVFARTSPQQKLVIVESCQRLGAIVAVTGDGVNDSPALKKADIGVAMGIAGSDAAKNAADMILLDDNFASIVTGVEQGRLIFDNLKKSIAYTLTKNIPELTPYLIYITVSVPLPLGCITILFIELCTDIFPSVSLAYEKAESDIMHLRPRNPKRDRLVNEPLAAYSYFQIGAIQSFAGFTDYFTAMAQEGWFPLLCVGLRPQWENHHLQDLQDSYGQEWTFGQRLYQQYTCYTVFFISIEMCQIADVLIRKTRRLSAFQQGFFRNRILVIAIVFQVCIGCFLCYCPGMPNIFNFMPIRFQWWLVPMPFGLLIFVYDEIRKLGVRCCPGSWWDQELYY
T1 sequence (P18434 whole entry partner): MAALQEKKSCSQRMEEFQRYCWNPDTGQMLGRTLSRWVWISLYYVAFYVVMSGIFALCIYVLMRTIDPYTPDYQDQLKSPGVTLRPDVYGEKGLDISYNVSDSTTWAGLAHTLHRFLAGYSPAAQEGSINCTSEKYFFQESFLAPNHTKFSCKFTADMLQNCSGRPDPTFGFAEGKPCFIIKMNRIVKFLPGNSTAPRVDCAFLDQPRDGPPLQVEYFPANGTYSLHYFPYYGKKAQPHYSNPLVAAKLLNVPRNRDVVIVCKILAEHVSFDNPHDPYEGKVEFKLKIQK

`CNCc1cn(S(=O)(=O)c2cccc(C(F)(F)F)c2)c(-c2ccccc2F)c1OC` [Example 2, hydrochloride] was tested, and the IC50 [1] was 0.015 µM and the “% inhibitory activity (gastric damage area)” value [2] was 91.8%.
